Results published in patent publication US10604509B2, “Nrf2 regulators” (GlaxoSmithKline Intellectual Property Development Limited, priority 2015, dated 2020).
pEC50: −log10 of the molar value. Counter-ions that a name gives are not always drawn.

The molecules below were run on NQO1 specific enzyme activity in BEAS-2B cells (assay: BEAS-2B NQO1 MTT assay). Conditions: BEAS-2B cells, 48 hours with compound, MTT readout; read-out: EC50 of NQO1 specific activity induction.
Format: cell-based
In short: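 NQO1 specific activity, an NRF2 activation marker, read kinetically as absorbance change at 570 nm for 30 min after MTT cocktail addition to crude lysates of BEAS-2B cells exposed 48 h to compound. Three-parameter fit of Delta OD/min against log concentration gives EC50; lysate portion used for Cell Titer Glo.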

SMILES	pEC50
Cc1ccc([C@@H](CC(=O)O)c2ccc3c(nnn3C)c2C)cc1CN1Cc2cc(F)ccc2OC(C)(C)C1 [Example 57, (R)-3-(1,4-Dimethyl-1H-benzo[d][1,2,3]triazol-5-yl)-3-(3-((7-fluoro-2,2-dimethyl-2,3-dihydrobenzo[f][1,4]oxazepin-4(5H)-yl)methyl)-4-methylphenyl)propanoic acid, 0.7formic acid salt]	7.00 to 8.00
CC[C@@H]1CN(Cc2cc([C@H](CC(=O)O)c3ccc4c(nnn4CC)c3Cl)ccc2C)Cc2ccccc2O1 [Example 66, (S)-3-(4-Chloro-1-ethyl-1H-benzo[d][1,2,3]triazol-5-yl)-3-(3-(((R)-2-ethyl-2,3-dihydrobenzo[f][1,4]oxazepin-4(5H)-yl)methyl)-4-methylphenyl)propanoate, Sodium Salt]	7.00 to 8.00

Same assay, conditions: Homo sapiens, BEAS-2B, 48 h, BEAS-2B cells, 48 hours with compound, MTT readout; read-out: EC50 of NQO1 specific activity induction

SMILES	pEC50
CC[C@@H]1CN(Cc2cc(C(CC(=O)O)c3ncc4c(nnn4C)c3C)ccc2C)Cc2ccccc2O1 (stereo partly drawn) [Example 48, 3-(3,7-Dimethyl-3H-[1,2,3]triazolo[4,5-c]pyridin-6-yl)-3-(3-(((R)-2-ethyl-2,3-dihydrobenzo[f][1,4]oxazepin-4(5H)-yl)methyl)-4-methylphenyl)propanoic Acid, Trifluoroacetic Acid Salt]	6.00 to 7.00
CC[C@@H]1CN(Cc2cc([C@H](CC(=O)O)c3ccc4c(nnn4C)c3C)ccc2C)Cc2ccccc2O1 [Example 49, (S)-3-(1,4-Dimethyl-1H-benzo[d][1,2,3]triazol-5-yl)-3-(3-(((R)-2-ethyl-2,3-dihydrobenzo[f][1,4]oxazepin-4(5H)-yl)methyl)-4-methylphenyl)propanoic Acid, Formic Acid Salt]	6.00 to 7.00
CC[C@@H]1CN(Cc2cc([C@H](CC(=O)O)c3ccc4c(nnn4C)c3C)ccc2C)Cc2cnccc2O1 [Example 50, (S)-3-(1,4-Dimethyl-1H-benzo[d][1,2,3]triazol-5-yl)-3-(3-(((R)-2-ethyl-2,3-dihydropyrido[3,4-f][1,4]oxazepin-4(5H)-yl)methyl)-4-methylphenyl)propanoic acid, formic acid salt]	7.00 to 8.00
CC[C@@H]1CN(Cc2cc([C@@H](CC(=O)O)c3ccc4c(nnn4C)c3C)ccc2C)Cc2ccccc2O1 [Example 51, (R)-3-(1,4-Dimethyl-1H-benzo[d][1,2,3]triazol-5-yl)-3-(3-(((R)-2-ethyl-2,3-dihdyrobenzo[f][1,4]oxazepin-4(5H)-yl)methyl)-4-methylphenyl)propanoic acid, formic acid salt]	6.00 to 7.00
CC[C@@H]1CN(Cc2cc([C@H](CC(=O)O)c3ccc4c(nnn4CC)c3F)ccc2C)Cc2cccc(F)c2O1 [Example 52, (S)-3-(1-Ethyl-4-fluoro-1H-benzo[d][1,2,3]triazol-5-yl)-3-(3-(((R)-2-ethyl-9-fluoro-2,3-dihdyrobenzo[f][1,4]oxazepin-4(5H)-yl)methyl)-4-methylphenyl)propanoic acid, 0.5formic acid salt]	8.00 to 9.00
CC[C@@H]1CN(Cc2cc([C@H](CC(=O)O)c3ccc4c(nnn4CC)c3F)ccc2C)Cc2cnccc2O1 [Example 53, (S)-3-(3-(((R)-2-Ethyl-2,3-dihydropyrido[3,4-f][1,4]oxazepin-4(5H)-yl)methyl)-4-methylphenyl)-3-(1-ethyl-4-fluoro-1H-benzo[d][1,2,3]triazol-5-yl)propanoic acid]	6.00 to 7.00
CCn1nnc2c(Cl)c([C@@H](CC(=O)O)c3ccc(C)c(CN4Cc5ccccc5OC(C)(C)C4)c3)ccc21 [Example 54, (S)-3-(4-Chloro-1-ethyl-1H-benzo[d][1,2,3]triazol-5-yl)-3-(3-((2,2-dimethyl-2,3-dihydrobenzo[f][1,4]oxazepin-4(5H)-yl)methyl)-4-methylphenyl)propanoic acid, hydrochloride]	7.00 to 8.00
CCn1nnc2c(Cl)c([C@H](CC(=O)O)c3ccc(C)c(CN4Cc5ccccc5OC(C)(C)C4)c3)ccc21 [Example 55, (R)-3-(4-Chloro-1-ethyl-1H-benzo[d][1,2,3]triazol-5-yl)-3-(3-((2,2-dimethyl-2,3-dihydrobenzo[f][1,4]oxazepin-4(5H)-yl)methyl)-4-methylphenyl)propanoate, Sodium salt]	7.00 to 8.00
CC[C@@H]1CN(Cc2cc([C@H](CC(=O)O)c3ccc4c(nnn4CC)c3Cl)ccc2C)Cc2ccccc2O1 [Example 56, (S)-3-(4-Chloro-1-ethyl-1H-benzo[d][1,2,3]triazol-5-yl)-3-(3-(((R)-2-ethyl-2,3-dihydrobenzo[f][1,4]oxazepin-4(5H)-yl)methyl)-4-methylphenyl)propanoic acid]	7.00 to 8.00
CC[C@@H]1CN(Cc2cc([C@H](CC(=O)O)c3ccc4c(nnn4C)c3C)ccc2C)Cc2cccc(F)c2O1 [Example 58, (S)-3-(1,4-Dimethyl-1H-benzo[d][1,2,3]triazol-5-yl)-3-(3-(((R)-2-ethyl-9-fluoro-2,3-dihydrobenzo[f][1,4]oxazepin-4(5H)-yl)methyl)-4-methylphenyl)propanoic acid, Sodium salt]	7.00 to 8.00
Cc1ccc([C@@H](CC(=O)O)c2ccc3c(nnn3C)c2C)cc1CN1Cc2ccc(F)cc2OC(C)(C)C1 [Example 59, (R)-3-(1,4-Dimethyl-1H-benzo[d][1,2,3]triazol-5-yl)-3-(3-((8-fluoro-2,2-dimethyl-2,3-dihydrobenzo[f][1,4]oxazepin-4(5H)-yl)methyl)-4-methylphenyl)propanoic acid]	7.00 to 8.00
CC[C@@H]1CN(Cc2cc([C@@H](CC(=O)O)c3ccc4c(nnn4C)c3C)ccc2C)Cc2cccc(F)c2O1 [Example 60, (R)-3-(1,4-Dimethyl-1H-benzo[d][1,2,3]triazol-5-yl)-3-(3-(((R)-2-ethyl-9-fluoro-2,3-dihydrobenzo[f][1,4]oxazepin-4(5H)-yl)methyl)-4-methylphenyl)propanoic acid, Sodium salt]	7.00 to 8.00
Cc1ccc([C@H](CC(=O)O)c2ccc3c(nnn3C)c2C)cc1CN1Cc2cc(F)ccc2OC(C)(C)C1 [Example 62, (S)-3-(1,4-Dimethyl-1H-benzo[d][1,2,3]triazol-5-yl)-3-(3-((7-fluoro-2,2-dimethyl-2,3-dihydrobenzo[f][1,4]oxazepin-4(5H)-yl)methyl)-4-methylphenyl)propanoic acid, 1.5formic acid salt]	7.00 to 8.00
Cc1ccc([C@H](CC(=O)O)c2ccc3c(nnn3C)c2C)cc1CN1Cc2ccc(F)cc2OC(C)(C)C1 [Example 63, (S)-3-(1,4-Dimethyl-1H-benzo[d][1,2,3]triazol-5-yl)-3-(3-((8-fluoro-2,2-dimethyl-2,3-dihydrobenzo[f][1,4]oxazepin-4(5H)-yl)methyl)-4-methylphenyl)propanoic acid]	7.00 to 8.00
CCn1nnc2c(F)c([C@@H](CC(=O)O)c3ccc(C)c(CN4Cc5ccccc5OC(C)(C)C4)c3)ccc21 [Example 64, (S)-3-(3-((2,2-Dimethyl-2,3-dihydrobenzo[f][1,4]oxazepin-4(5H)-yl)methyl)-4-methylphenyl)-3-(1-ethyl-4-fluoro-1H-benzo[d][1,2,3]triazol-5-yl)propanoic Acid]	7.00 to 8.00
CCn1nnc2c(F)c([C@H](CC(=O)O)c3ccc(C)c(CN4Cc5ccccc5OC(C)(C)C4)c3)ccc21 [Example 65, (R)-3-(3-((2,2-Dimethyl-2,3-dihydrobenzo[f][1,4]oxazepin-4(5H)-yl)methyl)-4-methylphenyl)-3-(1-ethyl-4-fluoro-1H-benzo[d][1,2,3]triazol-5-yl)propanoic Acid, Hydrochloride]	7.00 to 8.00
CC[C@@H]1CN(Cc2cc([C@@H](CC(=O)O)c3ccc4c(nnn4CC)c3Cl)ccc2C)Cc2ccccc2O1 [Example 67, (R)-3-(4-Chloro-1-ethyl-1H-benzo[d][1,2,3]triazol-5-yl)-3-(3-(((R)-2-ethyl-2,3-dihydrobenzo[f][1,4]oxazepin-4(5H)-yl)methyl)-4-methylphenyl)propanoate, Sodium Salt]	7.00 to 8.00
CC[C@@H]1CN(Cc2cc([C@H](CC(=O)O)c3ccc4c(nnn4CC)c3C)ccc2C)Cc2ccccc2O1 [Example 68, (S)-3-(3-(((R)-2-Ethyl-2,3-dihydrobenzo[f][1,4]oxazepin-4(5H)-yl)methyl)-4-methylphenyl)-3-(1-ethyl-4-methyl-1H-benzo[d][1,2,3]triazol-5-yl)propanoic Acid, Formic Acid Salt]	7.00 to 8.00
CCC1CN(Cc2cc(C(CC(=O)O)c3ccc4c(nnn4CC)c3C)ccc2C)Cc2ccccc2O1 (stereo not drawn) [Example 69, 3-(3-((2-Ethyl-2,3-dihydrobenzo[f][1,4]oxazepin-4(5H)-yl)methyl)-4-methylphenyl)-3-(1-ethyl-4-methyl-1H-benzo[d][1,2,3]triazol-5-yl)propanoic Acid, Formic Acid Salt]	7.00 to 8.00
CCC1CN(Cc2cc(C(CC(=O)O)c3cc(OC)c4c(nnn4C)c3C)ccc2C)Cc2ccccc2O1 (stereo not drawn) [Example 70, 3-(3-((2-Ethyl-2,3-dihydrobenzo[f][1,4]oxazepin-4(5H)-yl)methyl)-4-methylphenyl)-3-(7-methoxy-1,4-dimethyl-1H-benzo[d][1,2,3]triazol-5-yl)propanoic Acid, Formic Acid Salt]	7.00 to 8.00
CCCC1CN(Cc2cc(C(CC(=O)O)c3ccc4c(nnn4C)c3C)ccc2C)Cc2ccccc2O1 (stereo not drawn) [Example 71, 3-(1,4-dimethyl-1H-benzo[d][1,2,3]triazol-5-yl)-3-(4-methyl-3-((2-propyl-2,3-dihydrobenzo[f][1,4]oxazepin-4(5H)-yl)methyl)phenyl)propanoic Acid, Formic Acid Salt]	6.00 to 7.00
Cc1ccc(C(CC(=O)O)c2ccc3c(nnn3C)c2C)cc1CN1Cc2ccccc2OC(C(C)C)C1 (stereo not drawn) [Example 72, 3-(1,4-dimethyl-1H-benzo[d][1,2,3]triazol-5-yl)-3-(3-((2-isopropyl-2,3-dihydrobenzo[f][1,4]oxazepin-4(5H)-yl)methyl)-4-methylphenyl)propanoic acid, formic acid salt]	5.00 to 6.00
